Data from US7388017B2, “Inhibitors of serine proteases, particularly hepatitis C virus NS3 protease” (Vertex Pharmaceuticals Incorporated, priority 1996, dated 2008).
Starred links: 1 amine or outer side, 2 acyl side, 3 side chain; linkers in the order of their positions; H or OH if unused. Non-standard residues stand in square brackets, D forms with d. Residues, ends and D or L forms follow the SMILES beside them. Groups on a side chain read outwards from the residue. *: point of attachment. CH2(1-naphthyl) = c1ccc2c(C*)cccc2c1; Benzyl(3,4-Cl2) = Clc1ccc(C*)cc1Cl; Pyrazinecarbonyl = O=C(c1cnccn1)*; NH(3-Cl-phenyl) = Clc1cccc(N*)c1; X26 = Clc1ccc(-c2ncc(C*)s2)cc1; X35 = Cc1noc(C)c1-c1nc(C*)no1; X36 = c1ccc(-c2ccc(C*)cc2)cc1; Hyp = O=C(O)[CH]1C[CH](O)CN1; X25 = c1ccc(-c2nc(C*)no2)cc1; X5 = c1ccc(Oc2cccc(C*)c2)cc1; X11 = c1ccc(-c2ccccc2C*)cc1; X2 = COc1ccccc1-c1nc(C*)no1; X21 = FC(F)(F)Oc1cccc(C*)c1; X27 = Fc1cc2c(c(C*)c1)OCOC2; X7 = O=C(c1ccc(Cl)c(Cl)c1)*; X20 = FC(F)(F)c1cccc(C*)c1; X24 = FC(F)(F)c1ccc(C*)cc1; X4 = FC(F)(F)Oc1ccc(C*)cc1; Isovaleryl = CC(C)CC(=O)*; X15 = Clc1cc2c(cc1C*)OCO2; X31 = Clc1ccc2scc(C*)c2c1; X40 = CC(C)(C)c1nc(C*)no1; X10 = c1ccc2cc(C*)ccc2c1; X32 = Clc1ccc(N*)c(Cl)c1; X6 = Nc1c(Cl)cc(N*)cc1Cl; X42 = Clc1cccc(N*)c1Cl; Abu = CC[CH](N)C(=O)O; X22 = N#Cc1cccc(C*)c1; X33 = N#Cc1ccc(C*)cc1; CO = O=C([*:1])[*:2]; X29 = Fc1ccc(C*)cc1F; Bz = O=C(c1ccccc1)*; X1 = Cc1noc(C)c1C*

Target: T1, HCV NS3 protease (Hepatitis C virus genotype 1a, UniProt P27958)
T1 construct: more particularly HCV NS3 proteases
Test: Enzyme inhibition of HCV NS3 serine protease (cleavage of peptide substrate / EDVV AbuC-p-nitroanilide, with or without NS4A)
Type: biochemical
Conditions: Enzyme inhibition data; Ki from rate vs [inhibitor] plots, Morrison tight binding competitive inhibition fit; 30 C, pH 7.8; read-out: Ki
Method: Cleavage reactions were quenched by the addition of an equal volume of a mixture of 10% TFA:acetonitrile (1:1) and activity was assessed on a reversed phase HPLC column (Rainin C18 Microsorb-MV, […], 4.6×250 mm; 0-50% acetonitrile, 0.1% TFA@ 3.33% min) using a Hewlett Packard 1050 instrument with auto-injection and diode array detection at 210 nm and 280 nm (where appropriate). Peptide elution fragments were collected and identified by mass spectrometry and N-terminal sequence analysis. Fragment identity and concentration was further verified by authentic, synthesized products. Initial rates of cleavage were determined at <20% substrate conversion and catalytic parameters were determined assuming Michaelis-Menten kinetics using the MultiFit program (Day Computing, Cambridge, Mass.).
Spectrophotometric assays were run in a 96-well microtiter plate at 30 C, using a SpectraMax 250 reader (Molecular Devices, Sunnyvale, Calif.) with kinetic capability. Cleavage of EDVV AbuC-p-nitroanilide (5A-pNA) substrate was performed with or without […] in the same buffer used for HPLC assays at 30 C, and pNA release was monitored at 405 nm. The extinction-coefficient of p-nitroaniline is independent of pH at values of 5.5. and above [Tuppy, H., et al., Hoppe-Seyler's Z. Physiol. Chem., 329, pp. 278-288 (1962)]; Raybuck and Luong, unpublished observations).
Kinetic constants for the rapid equilibrium ordered bisubstrate reaction were determined from rate vs [4A], [EDVV AbuC-pNA] data by non-linear least squares fitting to equation 1 [Morrison, J. F. Biochim. Biophys. Acta, 185, pp. 269-286 (1969)] as described in the text. Kii and Kis values for peptidyl inhibitors were determined from rate vs [inhibitor], [substrate] data and fitting to the equation for mixed inhibition: rate=Vmax[S]/{Km(1+[I]/Kis)+[S](1+[I]/Kii)} The commercial program KinetAsyst (StateCollege, Pa.) was used for both procedures. Ki values were calculated from rate vs [inhibitor] plots by a nonlinear least squares fit of the data to the equation of Morrison for tight binding competitive inhibition [Morrison, J. F. Biochim. Biophys. Acta, 185, pp. 269-286 (1969)]. The KineTic program (BioKin Ltd) was used for this procedure.
Ki values are expressed in μM. Category “A” indicates <1 μM inhibition; category “B” indicates 1-100 μM inhibition; category “C” indicates >100 μM.

T1 sequence (P27958 1027-1208): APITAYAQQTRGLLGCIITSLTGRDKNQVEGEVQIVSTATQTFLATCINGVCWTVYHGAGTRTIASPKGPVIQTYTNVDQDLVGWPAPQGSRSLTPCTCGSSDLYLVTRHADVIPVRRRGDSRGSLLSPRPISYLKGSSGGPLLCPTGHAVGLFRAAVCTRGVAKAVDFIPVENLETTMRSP

`CCC(C=O)NC(=O)C1CC(OCc2cccc(Oc3ccccc3)c2)CN1C(=O)C(NC(=O)C(NC(=O)c1cnccn1)C(C)C)C(C)C` (centres unmarked) [Compound 1] (Pyrazinecarbonyl-VV[Hyp](X5)[Abu]-aldehyde; configuration not given here) gave a Ki of 1 to 100 µM.
In the case of `CCC(C=O)NC(=O)C1CC(OCc2ccc(-c3ccccc3)cc2)CN1C(=O)C(NC(=O)C(NC(=O)c1cnccn1)C(C)C)C(C)C` (centres unmarked) [Compound 2] (Pyrazinecarbonyl-VV[Hyp](X36)[Abu]-aldehyde; configuration not given here), the Ki is reported as 1 to 100 µM.
`CCC(C=O)NC(=O)C1CC(OCc2noc(-c3ccccc3)n2)CN1C(=O)C(NC(=O)C(NC(=O)c1cnccn1)C(C)C)C(C)C` (centres unmarked) [Compound 3] (Pyrazinecarbonyl-VV[Hyp](X25)[Abu]-aldehyde; configuration not given here) gave a Ki of 1 to 100 µM.
`CCC(C=O)NC(=O)C1CC(OCc2noc(-c3c(C)noc3C)n2)CN1C(=O)C(NC(=O)C(NC(=O)c1cnccn1)C(C)C)C(C)C` (centres unmarked) [Compound 5] (Pyrazinecarbonyl-VV[Hyp](X35)[Abu]-aldehyde; configuration not given here) was tested, and the Ki was 1 to 100 µM.
In the case of `CCC(C=O)NC(=O)C1CC(OCc2noc(C(C)(C)C)n2)CN1C(=O)C(NC(=O)C(NC(=O)c1cnccn1)C(C)C)C(C)C` (centres unmarked) [Compound 6] (Pyrazinecarbonyl-VV[Hyp](X40)[Abu]-aldehyde; configuration not given here), the Ki is reported as 1 to 100 µM.
With `CCC(C=O)NC(=O)C1CC(OCc2cc(F)cc3c2OCOC3)CN1C(=O)C(NC(=O)C(NC(=O)c1cnccn1)C(C)C)C(C)C` (centres unmarked) [Compound 8] (Pyrazinecarbonyl-VV[Hyp](X27)[Abu]-aldehyde; configuration not given here) the Ki was 1 to 100 µM.
Molecule `CCC(C=O)NC(=O)C1CC(OCc2cccc(OC(F)(F)F)c2)CN1C(=O)C(NC(=O)C(NC(=O)c1cnccn1)C(C)C)C(C)C` (centres unmarked) [Compound 9] (Pyrazinecarbonyl-VV[Hyp](X21)[Abu]-aldehyde; configuration not given here) has a Ki of 1 to 100 µM.
`CCC(C=O)NC(=O)C1CC(OCc2ccc(Cl)c(Cl)c2)CN1C(=O)C(NC(=O)C(NC(=O)c1cnccn1)C(C)C)C(C)C` (centres unmarked) [Compound 10] (Pyrazinecarbonyl-VV[Hyp](Benzyl(3,4-Cl2))[Abu]-aldehyde; configuration not given here) was tested, and the Ki was 1 to 100 µM.
Molecule `CCC(C=O)NC(=O)C1CC(OCc2ccccc2-c2ccccc2)CN1C(=O)C(NC(=O)C(NC(=O)c1cnccn1)C(C)C)C(C)C` (centres unmarked) [Compound 11] (Pyrazinecarbonyl-VV[Hyp](X11)[Abu]-aldehyde; configuration not given here) has a Ki of 1 to 100 µM.
In the case of `CCC(C=O)NC(=O)C1CC(OCc2c(C)noc2C)CN1C(=O)C(NC(=O)C(NC(=O)c1cnccn1)C(C)C)C(C)C` (centres unmarked) [Compound 12] (Pyrazinecarbonyl-VV[Hyp](X1)[Abu]-aldehyde; configuration not given here), the Ki is reported as 1 to 100 µM.
With `CCC(C=O)NC(=O)C1CC(OCc2cc3c(cc2Cl)OCO3)CN1C(=O)C(NC(=O)C(NC(=O)c1cnccn1)C(C)C)C(C)C` (centres unmarked) [Compound 13] (Pyrazinecarbonyl-VV[Hyp](X15)[Abu]-aldehyde; configuration not given here) the Ki was 1 to 100 µM.
Molecule `CCC(C=O)NC(=O)C1CC(OCc2noc(-c3ccccc3OC)n2)CN1C(=O)C(NC(=O)C(NC(=O)c1cnccn1)C(C)C)C(C)C` (centres unmarked) [Compound 14] (Pyrazinecarbonyl-VV[Hyp](X2)[Abu]-aldehyde; configuration not given here) has a Ki of 1 to 100 µM.
With `CCC(C=O)NC(=O)C1CC(OCc2ccc(C#N)cc2)CN1C(=O)C(NC(=O)C(NC(=O)c1cnccn1)C(C)C)C(C)C` (centres unmarked) [Compound 15] (Pyrazinecarbonyl-VV[Hyp](X33)[Abu]-aldehyde; configuration not given here) the Ki was 1 to 100 µM.
Molecule `CCC(C=O)NC(=O)C1CC(OCc2cccc(C(F)(F)F)c2)CN1C(=O)C(NC(=O)C(NC(=O)c1cnccn1)C(C)C)C(C)C` (centres unmarked) [Compound 16] (Pyrazinecarbonyl-VV[Hyp](X20)[Abu]-aldehyde; configuration not given here) has a Ki of 1 to 100 µM.
`CCC(C=O)NC(=O)C1CC(OCc2ccc(C(F)(F)F)cc2)CN1C(=O)C(NC(=O)C(NC(=O)c1cnccn1)C(C)C)C(C)C` (centres unmarked) [Compound 17] (Pyrazinecarbonyl-VV[Hyp](X24)[Abu]-aldehyde; configuration not given here) showed a Ki of 1 to 100 µM.
With `CCC(C=O)NC(=O)C1CC(OCc2ccc(OC(F)(F)F)cc2)CN1C(=O)C(NC(=O)C(NC(=O)c1cnccn1)C(C)C)C(C)C` (centres unmarked) [Compound 18] (Pyrazinecarbonyl-VV[Hyp](X4)[Abu]-aldehyde; configuration not given here) the Ki was 1 to 100 µM.
`CCC(C=O)NC(=O)C1CC(OCc2ccc3ccccc3c2)CN1C(=O)C(NC(=O)C(NC(=O)c1cnccn1)C(C)C)C(C)C` (centres unmarked) [Compound 20] (Pyrazinecarbonyl-VV[Hyp](X10)[Abu]-aldehyde; configuration not given here) gave a Ki of 1 to 100 µM.
`CCC(C=O)NC(=O)C1CC(OCc2cccc(C#N)c2)CN1C(=O)C(NC(=O)C(NC(=O)c1cnccn1)C(C)C)C(C)C` (centres unmarked) [Compound 21] (Pyrazinecarbonyl-VV[Hyp](X22)[Abu]-aldehyde; configuration not given here) was tested, and the Ki was 1 to 100 µM.
`CCC(C=O)NC(=O)C1CC(OCc2ccc(F)c(F)c2)CN1C(=O)C(NC(=O)C(NC(=O)c1cnccn1)C(C)C)C(C)C` (centres unmarked) [Compound 22] (Pyrazinecarbonyl-VV[Hyp](X29)[Abu]-aldehyde; configuration not given here) was tested, and the Ki was 1 to 100 µM.
Molecule `CCC(C=O)NC(=O)C1CC(OCc2csc3ccc(Cl)cc23)CN1C(=O)C(NC(=O)C(NC(=O)c1cnccn1)C(C)C)C(C)C` (centres unmarked) [Compound 23] (Pyrazinecarbonyl-VV[Hyp](X31)[Abu]-aldehyde; configuration not given here) has a Ki of 1 to 100 µM.
Work on `CCC(C=O)NC(=O)C1CC(OCc2cnc(-c3ccc(Cl)cc3)s2)CN1C(=O)C(NC(=O)C(NC(=O)c1cnccn1)C(C)C)C(C)C` (centres unmarked) [Compound 24] (Pyrazinecarbonyl-VV[Hyp](X26)[Abu]-aldehyde; configuration not given here) yielded a Ki of 1 to 100 µM.
`CCC(C=O)NC(=O)C1CC(OCc2cccc3ccccc23)CN1C(=O)C(NC(=O)C(NC(=O)c1cnccn1)C(C)C)C(C)C` (centres unmarked) [Compound 26] (Pyrazinecarbonyl-VV[Hyp](CH2(1-naphthyl))[Abu]-aldehyde; configuration not given here) showed a Ki of 1 to 100 µM.
`CCC(C=O)NC(=O)C1CC(OC(=O)c2ccc(Cl)c(Cl)c2)CN1C(=O)C(NC(=O)C(NC(=O)c1cnccn1)C(C)C)C(C)C` (centres unmarked) [Compound 27] (Pyrazinecarbonyl-VV[Hyp](X7)[Abu]-aldehyde; configuration not given here) showed a Ki of 1 to 100 µM.
`CCC(C=O)NC(=O)C1CC(OC(=O)c2ccccc2)CN1C(=O)C(NC(=O)C(NC(=O)c1cnccn1)C(C)C)C(C)C` (centres unmarked) [Compound 28] (Pyrazinecarbonyl-VV[Hyp](Bz)[Abu]-aldehyde; configuration not given here) gave a Ki of 1 to 100 µM.
`CCC(C=O)NC(=O)C1CC(OC(=O)CC(C)C)CN1C(=O)C(NC(=O)C(NC(=O)c1cnccn1)C(C)C)C(C)C` (centres unmarked) [Compound 29] (Pyrazinecarbonyl-VV[Hyp](Isovaleryl)[Abu]-aldehyde; configuration not given here) gave a Ki of 1 to 100 µM.
With `CCC(C=O)NC(=O)C1CC(OC(=O)Nc2ccc(Cl)cc2Cl)CN1C(=O)C(NC(=O)C(NC(=O)c1cnccn1)C(C)C)C(C)C` (centres unmarked) [Compound 30] (Pyrazinecarbonyl-VV[Hyp]([CO-X32])[Abu]-aldehyde; configuration not given here) the Ki was 1 to 100 µM.
In the case of `CCC(C=O)NC(=O)C1CC(OC(=O)Nc2cccc(Cl)c2Cl)CN1C(=O)C(NC(=O)C(NC(=O)c1cnccn1)C(C)C)C(C)C` (centres unmarked) [Compound 31] (Pyrazinecarbonyl-VV[Hyp]([CO-X42])[Abu]-aldehyde; configuration not given here), the Ki is reported as 1 to 100 µM.
`CCC(C=O)NC(=O)C1CC(OC(=O)Nc2cccc(Cl)c2)CN1C(=O)C(NC(=O)C(NC(=O)c1cnccn1)C(C)C)C(C)C` (centres unmarked) [Compound 32] (Pyrazinecarbonyl-VV[Hyp]([CO-NH(3-Cl-phenyl)])[Abu]-aldehyde; configuration not given here) gave a Ki of 1 to 100 µM.
Work on `CCC(C=O)NC(=O)C1CC(OC(=O)Nc2cc(Cl)c(N)c(Cl)c2)CN1C(=O)C(NC(=O)C(NC(=O)c1cnccn1)C(C)C)C(C)C` (centres unmarked) [Compound 33] (Pyrazinecarbonyl-VV[Hyp]([CO-X6])[Abu]-aldehyde; configuration not given here) yielded a Ki greater than 100 µM.
